Values quoted from earlier work as cited in patent publication EP0062861A1, “Isophorone-free formulations of the herbicide propanyl” (Montedison S.p.A., priority 1981, dated 1982).

System: mammalians
Settings: toxicity towards mammalians

In the case of `CCC(=O)Nc1ccc(Cl)c(Cl)c1` [Propanyl, N-(3,4-dichlorophenyl)-propionamide], the “LD 50” value is given as 1384 mg/kg.
